The term half-life denotes how long it takes for the measured level to halve.

This note sets out measurements from ChEMBL document CHEMBL1151033, “Tricyclic cephems as inhibitors of human leukocyte elastase. Furo[3,4-c]cepham sulfones” (Bioorg Med Chem Lett, 1995).

For series [1], the target named is T1, Neutrophil elastase (Homo sapiens) (UniProt P08246).
T1 sequence (whole entry): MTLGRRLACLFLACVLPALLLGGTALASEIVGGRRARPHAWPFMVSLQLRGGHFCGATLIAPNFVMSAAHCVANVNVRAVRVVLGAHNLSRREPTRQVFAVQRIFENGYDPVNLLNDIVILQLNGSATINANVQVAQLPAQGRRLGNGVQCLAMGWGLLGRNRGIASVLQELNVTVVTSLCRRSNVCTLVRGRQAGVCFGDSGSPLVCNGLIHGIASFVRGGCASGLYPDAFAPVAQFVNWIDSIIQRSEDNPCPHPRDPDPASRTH
The series is described as follows: Inhibitory activity against human leukocyte elastase (HLE) expressed as second order inhibition rate constant.

Series [2] can be described thus: Hydrolytic stability at 37 degrees Celsius in 50 mM phosphate buffer (2 % v/v MeCN as solubilising vehicle) at pH 7.4. It is filed as physicochemical.

In series [1], `CO[C@H]1C(=O)N2c3c(coc3C(C)(C)C)[C@@H](C)S(=O)(=O)[C@H]12` returned a k on of 1000 M⁻¹ s⁻¹. Besides, the half-life in series [2] was 5.83 days.

As for `CO[C@H]1C(=O)N2C(C(=O)c3ccccc3)=C(C)CS(=O)(=O)[C@H]12`, the half-life in series [2] was 1.08 days. `CO[C@H]1C(=O)N2c3c(coc3C(C)(C)C)CS(=O)(=O)[C@H]12` showed a k on in series [1] of 500 M⁻¹ s⁻¹. Further, in series [2], the half-life was 7.5 days.

The compound `CO[C@H]1C(=O)N2c3c(coc3C(C)(C)C)[C@@H](CC(=O)OC(C)(C)C)S(=O)(=O)[C@H]12` returned a k on in series [1] of 1100 M⁻¹ s⁻¹. Turning to `CO[C@H]1C(=O)N2c3c(coc3-c3ccccc3)CS(=O)(=O)[C@H]12`, in series [1], the k on was 2000 M⁻¹ s⁻¹. The same compound showed a half-life in series [2] of 2.96 days. Consider `CO[C@H]1C(=O)N2C(C(=O)C(C)(C)C)=C(C)CS(=O)(=O)[C@H]12`, for which the half-life in series [2] is 4.33 days. `CO[C@H]1C(=O)N2c3c(coc3C(C)(C)C)[C@]3(CC3(c3ccccc3)c3ccccc3)S(=O)(=O)[C@H]12` showed a k on in series [1] of 8800 M⁻¹ s⁻¹. The same compound gave a half-life in series [2] of 21.7 days.
